Source: patent publication US11447466B2, “Substituted indole compounds useful as inhibitors of TLR7/8/9” (BRISTOL-MYERS SQUIBB COMPANY, priority 2017, dated 2022)

Key:
Assay type in all cases: cell-based
human TLR8 = biological target: T1, human TLR8 (Homo sapiens, UniProt Q9NR97); assay: TLR8 inhibition reporter assay (HEK-Blue SEAP reporter, R848 stimulation); settings: HEK-Blue cells overexpressing human TLR8, SEAP reporter, R848 15.9 μM, 22 hour incubation
T1 construct: host or cells: HEK-Blue cells
T1 sequence (Q9NR97 27-1041): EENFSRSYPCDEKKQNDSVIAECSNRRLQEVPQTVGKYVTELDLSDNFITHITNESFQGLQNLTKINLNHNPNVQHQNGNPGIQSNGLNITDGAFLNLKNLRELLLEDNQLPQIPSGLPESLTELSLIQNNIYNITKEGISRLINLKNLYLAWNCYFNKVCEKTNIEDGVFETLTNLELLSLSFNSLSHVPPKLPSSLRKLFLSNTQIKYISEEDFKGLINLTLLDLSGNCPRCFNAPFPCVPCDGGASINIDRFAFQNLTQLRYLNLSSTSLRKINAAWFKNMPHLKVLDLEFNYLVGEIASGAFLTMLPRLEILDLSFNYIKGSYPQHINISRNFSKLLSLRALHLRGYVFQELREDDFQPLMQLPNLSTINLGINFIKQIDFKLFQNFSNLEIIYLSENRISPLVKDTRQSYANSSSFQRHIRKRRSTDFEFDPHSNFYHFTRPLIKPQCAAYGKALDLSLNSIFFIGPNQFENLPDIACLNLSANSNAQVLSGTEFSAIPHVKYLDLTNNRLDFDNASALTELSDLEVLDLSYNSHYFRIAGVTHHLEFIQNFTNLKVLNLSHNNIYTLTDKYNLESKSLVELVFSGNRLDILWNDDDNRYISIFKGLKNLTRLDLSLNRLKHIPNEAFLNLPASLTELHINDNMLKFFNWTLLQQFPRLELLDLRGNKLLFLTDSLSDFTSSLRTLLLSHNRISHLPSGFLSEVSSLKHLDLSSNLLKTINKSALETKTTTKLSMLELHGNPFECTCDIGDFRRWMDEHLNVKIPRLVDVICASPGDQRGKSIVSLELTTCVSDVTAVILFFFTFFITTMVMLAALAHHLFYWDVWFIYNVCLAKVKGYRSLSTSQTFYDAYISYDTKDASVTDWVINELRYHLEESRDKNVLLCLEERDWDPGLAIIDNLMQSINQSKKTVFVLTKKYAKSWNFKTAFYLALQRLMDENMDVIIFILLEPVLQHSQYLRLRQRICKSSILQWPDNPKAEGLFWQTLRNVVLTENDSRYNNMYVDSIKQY
In short: (§1)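 Agonists used: gardiquimod 7.5 μM (TLR7), R848 15.9 μM (TLR8), ODN2006 5 nM (TLR9), added after 30 min room-temperature compound pre-treatment (0.05 nM–50 μM) of receptor-overexpressing HEK-Blue cells. SEAP reporter (NF-κB/AP-1 driven) read after 22 h at 37 °C; inhibition scaled between agonist+DMSO and reference-inhibitor wells.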

human TLR9 = biological target: T2, human TLR9 (Homo sapiens, UniProt Q9NR96); assay: TLR9 inhibition reporter assay (HEK-Blue SEAP reporter, ODN2006 stimulation); settings: HEK-Blue cells overexpressing human TLR9, SEAP reporter, ODN2006 5 nM, 22 hour incubation
T2 construct: host or cells: HEK-Blue cells
T2 sequence (Q9NR96 26-1032): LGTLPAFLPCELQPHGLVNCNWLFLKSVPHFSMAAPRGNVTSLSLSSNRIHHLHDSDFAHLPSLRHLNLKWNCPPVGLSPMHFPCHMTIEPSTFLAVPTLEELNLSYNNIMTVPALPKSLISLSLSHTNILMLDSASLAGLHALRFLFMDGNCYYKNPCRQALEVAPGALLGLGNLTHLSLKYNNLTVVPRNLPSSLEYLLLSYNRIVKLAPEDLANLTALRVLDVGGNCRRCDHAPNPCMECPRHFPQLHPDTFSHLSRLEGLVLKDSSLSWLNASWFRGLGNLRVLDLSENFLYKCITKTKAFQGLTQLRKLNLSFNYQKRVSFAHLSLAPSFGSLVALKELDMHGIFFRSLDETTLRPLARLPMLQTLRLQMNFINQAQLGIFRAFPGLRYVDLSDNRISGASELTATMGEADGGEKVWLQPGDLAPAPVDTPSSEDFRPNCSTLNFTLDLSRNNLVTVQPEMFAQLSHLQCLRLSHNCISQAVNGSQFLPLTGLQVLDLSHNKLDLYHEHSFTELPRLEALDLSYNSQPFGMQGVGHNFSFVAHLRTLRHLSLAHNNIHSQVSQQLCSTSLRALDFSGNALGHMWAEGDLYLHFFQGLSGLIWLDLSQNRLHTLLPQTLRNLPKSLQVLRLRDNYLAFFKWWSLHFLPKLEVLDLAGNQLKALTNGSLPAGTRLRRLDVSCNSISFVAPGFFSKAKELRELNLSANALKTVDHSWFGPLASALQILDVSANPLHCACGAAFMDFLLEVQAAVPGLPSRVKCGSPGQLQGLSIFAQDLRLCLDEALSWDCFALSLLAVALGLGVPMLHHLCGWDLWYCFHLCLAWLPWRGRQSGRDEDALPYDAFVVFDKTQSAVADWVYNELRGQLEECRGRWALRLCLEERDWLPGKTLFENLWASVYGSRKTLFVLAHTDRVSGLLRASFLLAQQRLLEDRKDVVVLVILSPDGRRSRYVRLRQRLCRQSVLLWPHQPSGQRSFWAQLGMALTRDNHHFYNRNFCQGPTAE
In short: as §1

human TLR7 = biological target: T3, human TLR7 (Homo sapiens, UniProt Q9NYK1); assay: TLR7 inhibition reporter assay (HEK-Blue SEAP reporter, gardiquimod stimulation); settings: HEK-Blue cells overexpressing human TLR7, SEAP reporter, gardiquimod 7.5 μM, 22 hour incubation
T3 construct: host or cells: HEK-Blue cells
T3 sequence (Q9NYK1 27-1049): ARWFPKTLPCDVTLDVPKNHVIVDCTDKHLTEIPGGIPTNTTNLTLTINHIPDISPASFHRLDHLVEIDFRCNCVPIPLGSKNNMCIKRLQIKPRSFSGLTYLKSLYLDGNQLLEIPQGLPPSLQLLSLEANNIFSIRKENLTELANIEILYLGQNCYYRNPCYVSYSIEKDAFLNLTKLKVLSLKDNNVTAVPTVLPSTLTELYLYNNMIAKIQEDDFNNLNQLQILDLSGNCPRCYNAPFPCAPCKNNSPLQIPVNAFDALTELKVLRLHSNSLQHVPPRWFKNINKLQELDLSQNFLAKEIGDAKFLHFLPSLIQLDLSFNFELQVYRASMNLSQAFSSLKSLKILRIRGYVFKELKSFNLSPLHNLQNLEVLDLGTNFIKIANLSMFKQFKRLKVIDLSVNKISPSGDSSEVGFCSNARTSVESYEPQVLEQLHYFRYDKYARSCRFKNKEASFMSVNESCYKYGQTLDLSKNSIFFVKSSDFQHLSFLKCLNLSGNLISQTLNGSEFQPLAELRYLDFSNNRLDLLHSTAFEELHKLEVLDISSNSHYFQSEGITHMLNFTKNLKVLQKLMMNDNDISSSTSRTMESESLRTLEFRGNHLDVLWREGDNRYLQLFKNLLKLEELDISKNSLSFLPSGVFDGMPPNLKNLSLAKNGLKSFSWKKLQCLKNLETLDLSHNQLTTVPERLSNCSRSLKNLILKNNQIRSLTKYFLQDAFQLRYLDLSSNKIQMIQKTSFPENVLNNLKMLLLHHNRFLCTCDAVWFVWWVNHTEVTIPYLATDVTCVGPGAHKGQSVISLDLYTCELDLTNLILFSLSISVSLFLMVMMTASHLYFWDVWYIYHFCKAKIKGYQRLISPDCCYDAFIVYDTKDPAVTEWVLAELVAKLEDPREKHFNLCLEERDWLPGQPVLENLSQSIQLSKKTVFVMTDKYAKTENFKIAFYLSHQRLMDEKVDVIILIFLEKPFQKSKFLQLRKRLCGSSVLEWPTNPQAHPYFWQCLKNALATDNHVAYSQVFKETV
In short: as §1

Compound	IC50 (human TLR8)	IC50 (human TLR9)	IC50 (human TLR7)
CC(C)CN1CCC(c2ccc3[nH]c(-c4cc(-c5cncnc5)c(=O)n(C)c4)c(C(C)C)c3c2)CC1 [Example 256, 5-(5-(1-isobutylpiperidin-4-yl)-3-isopropyl-1H-indol-2-yl)-1-methyl-3-(pyrimidin-5-yl)pyridin-2(1H)-one]	1.7 nM	1470 nM	12.4 nM
Cc1cc(-c2[nH]c3ccc(C4CCN(CC(O)C(C)(C)C)CC4)cc3c2C(C)C)cn(C)c1=O (stereo not drawn) [Example 325, 5-(5-(1-(2-hydroxy-3,3-dimethylbutyl)piperidin-4-yl)-3-isopropyl-1H-indol-2-yl)-1,3-dimethylpyridin-2(1H)-one]	4.3 nM	3000 nM	8.7 nM
Cc1cc(-c2[nH]c3ccc(C4CCN(CC(C)(C)O)CC4)cc3c2C(C)C)cn(C)c1=O [Example 310, 5-(5-(1-(2-hydroxy-2-methylpropyl)piperidin-4-yl)-3-isopropyl-1H-indol-2-yl)-1,3-dimethylpyridin-2(1H)-one]	1.3 nM	5540 nM	2.3 nM
CC(C)c1c(-c2cc(F)c(=O)n(C)c2)[nH]c2ccc(C3CCNCC3)cc12 [Example 13, 3-fluoro-5-(3-isopropyl-5-(piperidin-4-yl)-1H-indol-2-yl)-1-methylpyridin-2(1H)-one]	33.9 nM	593 nM	18.2 nM
CCc1cc(-c2[nH]c3ccc(C4CCN(CC(=O)N(C)C)CC4)cc3c2C(C)C)cn(C)c1=O [Example 168, 2-(4-(2-(5-ethyl-1-methyl-6-oxo-1,6-dihydropyridin-3-yl)-3-isopropyl-1H-indol-5-yl)piperidin-1-yl)-N,N-dimethylacetamide]	10.3 nM	2380 nM	7.9 nM
Cc1cc(-c2[nH]c3ccc(C4CCN(Cc5cnn(C(C)C)c5)CC4)cc3c2C(C)C)cn(C)c1=O [Example 227]	4.1 nM	3040 nM	3.8 nM
COc1cc(-c2[nH]c3ccc(C4CCN(C5COC5)CC4)cc3c2C(C)C)cn(C)c1=O [Example 202, 5-(3-isopropyl-5-(1-(oxetan-3-yl)piperidin-4-yl)-1H-indol-2-yl)-3-methoxy-1-methylpyridin-2(1H)-one]	13.5 nM	5630 nM	11.3 nM
CC(C)c1c(-c2ccc(=O)n(C)c2)[nH]c2ccc(C3CCN(CC(=O)N(C)C)CC3)cc12 [Example 114, 2-(4-(3-isopropyl-2-(1-methyl-6-oxo-1,6-dihydropyridin-3-yl)-1H-indol-5-yl)piperidin-1-yl)-N,N-dimethylacetamide]	43.6 nM	10400 nM	42.9 nM
CNC(=O)CN1CCC(c2ccc3[nH]c(-c4nn(C)c(=O)c(C)c4C)c(C(C)C)c3c2)CC1 [Example 131, 2-(4-(3-isopropyl-2-(1,4,5-trimethyl-6-oxo-1,6-dihydropyridazin-3-yl)-1H-indol-5-yl)piperidin-1-yl)-N-methylacetamide]	33.4 nM	16200 nM	245 nM
Cc1cc(-c2[nH]c3ccc(C4CCN(C5CCOCC5)CC4)cc3c2C(C)C)nn(C)c1=O [Example 194, 6-(3-isopropyl-5-(1-(tetrahydro-2H-pyran-4-yl)piperidin-4-yl)-1H-indol-2-yl)-2,4-dimethylpyridazin-3(2H)-one]	6.3 nM	2980 nM	10.2 nM
CCCN1CCC(c2ccc3[nH]c(-c4cc(-c5cnc(C)nc5)c(=O)n(C)c4)c(C(C)C)c3c2)CC1 [Example 337, 5-(3-isopropyl-5-(1-propylpiperidin-4-yl)-1H-indol-2-yl)-1-methyl-3-(2-methylpyrimidin-5-yl)pyridin-2(1H)-one]	11.9 nM	2490 nM	1.8 nM
CNC(=O)CN1CCC(c2ccc3[nH]c(-c4cn(C)c(=O)c(Cl)c4C)c(C(C)C)c3c2)CC1 [Example 153, 2-(4-(2-(5-chloro-1,4-dimethyl-6-oxo-1,6-dihydropyridin-3-yl)-3-isopropyl-1H-indol-5-yl)piperidin-1-yl)-N-methylacetamide]	12.6 nM	7880 nM	3.5 nM
Cc1c(-c2[nH]c3ccc(C4CCN(CCS(C)(=O)=O)CC4)cc3c2C(C)C)cn(C)c(=O)c1Cl [Example 107, 3-chloro-5-(3-isopropyl-5-(1-(2-(methylsulfonyl)ethyl)piperidin-4-yl)-1H-indol-2-yl)-1,4-dimethylpyridin-2(1H)-one]	4.4 nM	13400 nM	6.6 nM
Cc1cc(-c2[nH]c3ccc(C4CCNCC4)cc3c2C(C)C)cn(Cc2ccccc2)c1=O [Example 46, 1-benzyl-5-(3-isopropyl-5-(piperidin-4-yl)-1H-indol-2-yl)-3-methylpyridin-2(1H)-one]	29.9 nM	919 nM	2.9 nM
